Experimental data published in the NIST ThermoML archive (doi:10.1021/je5008795).
± gives the expanded uncertainty stated by the source. Each block holds one molecule with its values, some of them ahead of it.

Experiments:
[1] = xn = mol fraction of the nth substance listed; conditions: 298.15 K, 101 kPa, Liquid, Vibrating tube method
[2] = refractive index (Na D-line) (dimensionless); xn = mol fraction of the nth substance listed; conditions: 298.15 K, 101 kPa, Liquid, Standard Abbe refractometry
[3] = for vapor or sublimation pressure / Normal melting temperature: Crystal; for vapor or sublimation pressure: Transpiration method; for Normal melting temperature: DTA; for mass density: 298.15 K, 101 kPa, Liquid, Vibrating tube method
[4] = Molar enthalpy of transition or fusion; conditions: Crystal; DSC
[5] = refractive index (Na D-line) (dimensionless); conditions: 298.15 K; 101.33 kPa; Liquid; Standard Abbe refractometry

SMILES: Clc1ccc(Br)cc1 [1-bromo-4-chlorobenzene] + c1ccccc1
mass density ([1]; x1 = 0.00231): 875.875 ± 0.16 kg/m3 | mass density ([1]; x1 = 0.00253): 876.093 ± 0.16 kg/m3 | mass density ([1]; x1 = 0.00268): 876.25 ± 0.16 kg/m3 | refractive index ([2]; x1 = 0.00231): 1.49779 ± 0.00031 | refractive index ([2]; x1 = 0.00253): 1.49781 ± 0.00031 | refractive index ([2]; x1 = 0.00268): 1.49782 ± 0.00031

vapor or sublimation pressure ([3]; 358.1 K): 0.00038 ± 3e-05 kPa | vapor or sublimation pressure ([3]; 363.9 K): 0.00067 ± 5e-05 kPa | vapor or sublimation pressure ([3]; 365.4 K): 0.00077 ± 6e-05 kPa | vapor or sublimation pressure ([3]; 368.4 K): 0.00099 ± 7e-05 kPa | vapor or sublimation pressure ([3]; 373.5 K): 0.00162 ± 0.00012 kPa | vapor or sublimation pressure ([3]; 378.5 K): 0.00243 ± 0.00017 kPa | vapor or sublimation pressure ([3]; 383.5 K): 0.00367 ± 0.00026 kPa | vapor or sublimation pressure ([3]; 388.6 K): 0.00579 ± 0.00042 kPa | vapor or sublimation pressure ([3]; 393.3 K): 0.00851 ± 0.0006 kPa | vapor or sublimation pressure ([3]; 396.6 K): 0.01049 ± 0.00075 kPa | vapor or sublimation pressure ([3]; 399.6 K): 0.0138 ± 0.00098 kPa | vapor or sublimation pressure ([3]; 400.4 K): 0.0144 ± 0.001 kPa | vapor or sublimation pressure ([3]; 402.6 K): 0.0171 ± 0.0012 kPa | vapor or sublimation pressure ([3]; 404.4 K): 0.02039 ± 0.0015 kPa
SMILES: Brc1ccc(-c2ccc(Br)cc2)cc1 [4,4'-dibromo-1,1'-biphenyl]

mass density ([1]; x1 = 0.00076): 875.001 ± 0.2 kg/m3 | mass density ([1]; x1 = 0.0009): 875.213 ± 0.2 kg/m3 | mass density ([1]; x1 = 0.00107): 875.48 ± 0.2 kg/m3 | mass density ([1]; x1 = 0.00116): 875.632 ± 0.2 kg/m3 | refractive index ([2]; x1 = 0.00076): 1.49787 ± 0.00031 | refractive index ([2]; x1 = 0.0009): 1.49791 ± 0.00031 | refractive index ([2]; x1 = 0.00107): 1.49796 ± 0.00031 | refractive index ([2]; x1 = 0.00116): 1.49802 ± 0.00031
SMILES: Brc1ccc(-c2ccc(Br)cc2)cc1 [4,4'-dibromo-1,1'-biphenyl] + c1ccccc1

SMILES: Brc1ccc(-c2ccccc2)cc1 [4-bromo-1,1'-biphenyl]
vapor or sublimation pressure ([3]; 303.2 K): 9e-05 ± 1e-05 kPa | vapor or sublimation pressure ([3]; 308.2 K): 0.00016 ± 1e-05 kPa | vapor or sublimation pressure ([3]; 313 K): 0.00027 ± 2e-05 kPa | vapor or sublimation pressure ([3]; 318.3 K): 0.00048 ± 4e-05 kPa | vapor or sublimation pressure ([3]; 323.4 K): 0.00083 ± 6e-05 kPa | vapor or sublimation pressure ([3]; 326.2 K): 0.00109 ± 8e-05 kPa | vapor or sublimation pressure ([3]; 328.2 K): 0.00137 ± 0.0001 kPa | vapor or sublimation pressure ([3]; 333.3 K): 0.0023 ± 0.00017 kPa | vapor or sublimation pressure ([3]; 338.3 K): 0.00364 ± 0.00026 kPa | vapor or sublimation pressure ([3]; 343.1 K): 0.0056 ± 0.0004 kPa | vapor or sublimation pressure ([3]; 348.3 K): 0.00907 ± 0.00066 kPa | vapor or sublimation pressure ([3]; 353 K): 0.01426 ± 0.001 kPa | vapor or sublimation pressure ([3]; 355.7 K): 0.0165 ± 0.0012 kPa | vapor or sublimation pressure ([3]; 358.4 K): 0.02207 ± 0.0016 kPa | vapor or sublimation pressure ([3]; 360.2 K): 0.0253 ± 0.0018 kPa | Normal melting temperature [3]: 89.0 ± 0.5 °C | Molar enthalpy of transition or fusion [4]: 16.3 ± 0.5 kJ/mol

SMILES: Brc1ccc(-c2ccccc2)cc1 [4-bromo-1,1'-biphenyl] + c1ccccc1
mass density ([1]; x1 = 0.00109): 874.692 ± 0.16 kg/m3 | mass density ([1]; x1 = 0.00186): 875.469 ± 0.16 kg/m3 | mass density ([1]; x1 = 0.00189): 875.45 ± 0.16 kg/m3 | mass density ([1]; x1 = 0.00237): 875.983 ± 0.17 kg/m3 | refractive index ([2]; x1 = 0.00109): 1.49787 ± 0.00031 | refractive index ([2]; x1 = 0.00186): 1.4981 ± 0.00031 | refractive index ([2]; x1 = 0.00189): 1.49809 ± 0.00031 | refractive index ([2]; x1 = 0.00237): 1.4982 ± 0.00031

SMILES: Brc1c2ccccc2c(Br)c2ccccc12 [9,10-dibromoanthracene]
Normal melting temperature [3]: 224.7 ± 0.4 °C | Molar enthalpy of transition or fusion [4]: 28.7 ± 0.7 kJ/mol

SMILES: Clc1c2ccccc2c(Cl)c2ccccc12 [9,10-dichloroanthracene]
Normal melting temperature [3]: 213.5 ± 0.5 °C | Molar enthalpy of transition or fusion [4]: 25.1 ± 0.8 kJ/mol

Normal melting temperature [3]: 103.5 ± 2.2 °C | Molar enthalpy of transition or fusion [4]: 22 ± 0.5 kJ/mol
SMILES: Clc1c2ccccc2cc2ccccc12 [9-chloroanthracene]

SMILES: c1ccccc1 [benzene]
mass density [3]: 873.633 ± 0.13 kg/m3 [middle of 6 runs] | refractive index [5]: 1.49755 ± 0.00031

SMILES: c1ccccc1 [benzene] + Brc1ccc(-c2ccc(Br)cc2)cc1
mass density ([1]; x2 = 0): 873.633 ± 0.22 kg/m3 | refractive index ([2]; x2 = 0): 1.49755 ± 0.00031

SMILES: c1ccccc1 [benzene] + Brc1ccc(-c2ccccc2)cc1
mass density ([1]; x2 = 0): 873.616 ± 0.16 kg/m3 | refractive index ([2]; x2 = 0): 1.49755 ± 0.00031

SMILES: c1ccccc1 [benzene] + Brc1ccc(Br)c2ccccc12
mass density ([1]; x2 = 0): 873.652 ± 0.21 kg/m3 | refractive index ([2]; x2 = 0): 1.49755 ± 0.00031

SMILES: c1ccccc1 [benzene] + Brc1ccc(Br)cc1
mass density ([1]; x2 = 0): 873.671 ± 0.19 kg/m3 | refractive index ([2]; x2 = 0): 1.49755 ± 0.00031

SMILES: c1ccccc1 [benzene] + Brc1ccccc1Br
mass density ([1]; x2 = 0): 873.478 ± 0.19 kg/m3 | refractive index ([2]; x2 = 0): 1.49776 ± 0.00031

SMILES: c1ccccc1 [benzene] + Clc1ccc(Br)cc1
mass density ([1]; x2 = 0): 873.613 ± 0.16 kg/m3 | refractive index ([2]; x2 = 0): 1.49755 ± 0.00031

SMILES: Clc1c(Cl)c(Cl)c(Cl)c(Cl)c1Cl [hexachlorobenzene] + ClC(Cl)(Cl)Cl
mass density ([1]; x1 = 0.00028): 1584.37 ± 0.27 kg/m3 | mass density ([1]; x1 = 0.00052): 1584.53 ± 0.27 kg/m3 | mass density ([1]; x1 = 0.00066): 1584.53 ± 0.27 kg/m3 | mass density ([1]; x1 = 0.00094): 1584.63 ± 0.27 kg/m3 | refractive index ([2]; x1 = 0.00028): 1.45724 ± 0.00031 | refractive index ([2]; x1 = 0.00052): 1.45734 ± 0.00031 | refractive index ([2]; x1 = 0.00066): 1.45735 ± 0.00031 | refractive index ([2]; x1 = 0.00094): 1.45743 ± 0.00031

SMILES: ClC(Cl)(Cl)Cl [tetrachloromethane]
mass density [3]: 1584.26 ± 0.27 kg/m3 | refractive index [5]: 1.45715 ± 0.00031

SMILES: ClC(Cl)(Cl)Cl [tetrachloromethane] + Clc1c(Cl)c(Cl)c(Cl)c(Cl)c1Cl
mass density ([1]; x2 = 0): 1584.26 ± 0.27 kg/m3 | refractive index ([2]; x2 = 0): 1.45715 ± 0.00031
